What all share (experiment): CellTiter-Glo cell viability assay, cancer cell cytotoxicity/anti-proliferation panel (Chempartner)
Common to all, as to assay type: cell-based
A general note: Cellular ATP, detected with luciferase, serves as a proxy for viable cell number.

In test [1] the test system is AsPC-1, pancreas, ductal carcinoma. To be noted: for Inhibition: AsPC-1, 72 hours, compounds 10 μM starting, STS 2 μM starting, 10-pt, 3-fold dilution; for IC50: Homo sapiens, ASPC1, 72 h, read-out: IC50 (absolute IC50).
In test [2] the test system is TE-6 RIKEN esophagus, carcinoma.
The subject of test [3] is PC-3 ATCC prostate adenocarcinoma.
The subject of test [4] is Caco-2 ATCC colon adenocarcinoma.
[5] abbreviates: 72 h, read-out: IC50 (absolute IC50).

Molecules are shown by their SMILES.

The Inhibition is the percentage by which the read-out fell short of the control. A higher Inhibition goes with strong suppression. The term IC50 denotes the point on the concentration scale where inhibition reaches its midpoint. On to `CCCCCc1cc2c(c(O)c1C(=O)NCCN(C)C)[C@@H]1C=C(C)CC[C@H]1C(C)(C)O2` [Ia6, (6aR,0aR)—N-(2-(dimethylamino)ethyl)-1-hydroxy-6,6,9-trimethyl-3-pentyl-6a,7,8,10a-tetrahydro-6H-benzo[c]chromene-2-carboxamide], for which, in test [1], the Inhibition is given as 54.46% and the IC50 came to 9.1 µM.

Regarding `CCCCCc1cc2c(c(O)c1C(=O)NCCCN1CCOCC1)[C@@H]1C=C(C)CC[C@H]1C(C)(C)O2` [Ia9, (6aR,0aR)-1-hydroxy-6,6,9-trimethyl-N-(3-morpholinopropyl)-3-pentyl-6a,7,8,10a-tetrahydro-6H-benzo[c]chromene-2-carboxamide], the IC50 in test [2] (setting [5]) was found to be 7.36 µM; in test [3] (setting [5]) it was 9.94 µM; in test [1], 7.38 µM; in test [4] (Homo sapiens, Caco-2, 72 h, read-out: IC50 (absolute IC50)) it was 8.87 µM. The Inhibition in test [2] (TE-6, 72 hours, compounds 10 μM starting, STS 2 μM starting, 10-pt, 3-fold dilution) is given as 67.27%; in test [3] (PC-3, 72 hours, compounds 10 μM starting, STS 2 μM starting, 10-pt, 3-fold dilution) it was 61.13%; in test [1] it was 64.62%; in test [4] (Caco-2, 72 hours, compounds 10 μM starting, STS 2 μM starting, 10-pt, 3-fold dilution) it was 60.81%.

Source of the values: patent US20210087159A1, “TETRAHYDROCANNABINOLIC- CA[…] DERIVATIVES AND USES THEREOF” (AL&AM […]., priority 2018, published 2021).
